What is called pIC50 is the negative decadic logarithm of the IC50, by convention in mol/L. Higher therefore signals a small IC50.

Results on ten compounds are retold here after ChEMBL document CHEMBL1144253, “Pyrimidine containing RSV fusion inhibitors” (Bioorg Med Chem Lett, 2005).

What all share (type): functional, cell-based
For test [1], the system named is HFF. The experiment in a line: Inhibitory concentration against human respiratory syncytial virus strain A2 in human foreskin fibroblasts.
Test [2] deals with HFF. Nature of the test: Inhibitory concentration against human cytomegalovirus strain Ad169 in human foreskin fibroblasts.
Test [3] deals with Vero. The experiment in a line: Inhibitory concentration against herpes simplex 1 strain Patton in vero cells. The conditions noted are these: Chlorocebus sabaeus.

The structures appear in SMILES notation. pIC50: −log10 of the molar value.

`NC(=O)CCN(CCC(N)=O)S(=O)(=O)c1cccc(Nc2nc(Nc3cccc(S(=O)(=O)N(CCC(N)=O)CCC(N)=O)c3)nc(Nc3ccc(/C=C/c4ccc(Nc5nc(Nc6cccc(S(=O)(=O)N(CCC(N)=O)CCC(N)=O)c6)nc(Nc6cccc(S(=O)(=O)N(CCC(N)=O)CCC(N)=O)c6)n5)cc4S(=O)(=O)O)c(S(=O)(=O)O)c3)n2)c1` showed a negative-log IC50 (pIC50) in test [1] of 6.82.
For the compound `NC(=O)CCN(CCC(N)=O)S(=O)(=O)c1cccc(Nc2nc(Cl)nc(Nc3ccc(-c4ccc(Nc5nc(Nc6cccc(S(=O)(=O)N(CCC(N)=O)CCC(N)=O)c6)nc(Nc6cccc(S(=O)(=O)N(CCC(N)=O)CCC(N)=O)c6)n5)cc4S(=O)(=O)O)c(S(=O)(=O)O)c3)n2)c1`, the pIC50 in test [1] was 6.60; in test [2] it was 4.77.
Take `NC(=O)CN(CC(N)=O)S(=O)(=O)c1cccc(Nc2cc(Nc3ccc(-c4ccc(Nc5nc(Nc6cccc(S(=O)(=O)N(CC(N)=O)CC(N)=O)c6)ncc5Cl)cc4S(=O)(=O)O)c(S(=O)(=O)O)c3)nc(Cl)n2)c1`: the values for the pIC50 in test [3], in test [1] and in test [2] were 4.60, 5.46 and 4.86, respectively.
`NC(=O)CCN(CCC(N)=O)S(=O)(=O)c1cccc(Nc2nc(Nc3cccc(S(=O)(=O)N(CCC(N)=O)CCC(N)=O)c3)nc(Nc3ccc(-c4ccc(Nc5nc(Nc6cccc(S(=O)(=O)N(CCC(N)=O)CCC(N)=O)c6)nc(Nc6cccc(S(=O)(=O)N(CCC(N)=O)CCC(N)=O)c6)n5)cc4S(=O)(=O)O)c(S(=O)(=O)O)c3)n2)c1` had a pIC50 in test [1] of 7.10.
For the compound `O=S(=O)(O)c1cc(Nc2nc(Nc3cccc(S(=O)(=O)N(CCO)CCO)c3)nc(Nc3cccc(S(=O)(=O)N(CCO)CCO)c3)n2)ccc1-c1ccc(Nc2nc(Nc3cccc(S(=O)(=O)N(CCO)CCO)c3)nc(Nc3cccc(S(=O)(=O)N(CCO)CCO)c3)n2)cc1S(=O)(=O)O`, the negative logarithm of the IC50 (pIC50) in test [3] is 4.83; in test [1] it was 7.05; in test [2], 5.64.
For `O=S(=O)(O)c1cc(Nc2cc(Nc3cccc(S(=O)(=O)N(CCO)CCO)c3)nc(Nc3cccc(S(=O)(=O)N(CCO)CCO)c3)n2)ccc1-c1ccc(Nc2cc(Nc3cccc(S(=O)(=O)N(CCO)CCO)c3)nc(Nc3cccc(S(=O)(=O)N(CCO)CCO)c3)n2)cc1S(=O)(=O)O` the same measures were 4.77, 6.09 and 5.36.
For `NC(=O)CN(CC(N)=O)S(=O)(=O)c1cccc(Nc2nc(Nc3cccc(S(=O)(=O)N(CC(N)=O)CC(N)=O)c3)nc(Nc3ccc(-c4ccc(Nc5nc(Nc6cccc(S(=O)(=O)N(CC(N)=O)CC(N)=O)c6)nc(Nc6cccc(S(=O)(=O)N(CC(N)=O)CC(N)=O)c6)n5)cc4S(=O)(=O)O)c(S(=O)(=O)O)c3)n2)c1` [RF-1461] the same measures were 5.11, 7.30 and 5.59.
For `NC(=O)CN(CC(N)=O)S(=O)(=O)c1cccc(Nc2cc(Nc3ccc(-c4ccc(Nc5cc(Nc6cccc(S(=O)(=O)N(CC(N)=O)CC(N)=O)c6)nc(Nc6cccc(S(=O)(=O)N(CC(N)=O)CC(N)=O)c6)n5)cc4S(=O)(=O)O)c(S(=O)(=O)O)c3)nc(Cl)n2)c1` the same measures were 4.72, 5.74 and 5.15.
As for `NC(=O)CCCN(CCCC(N)=O)S(=O)(=O)c1cccc(Nc2nc(Nc3cccc(S(=O)(=O)N(CCCC(N)=O)CCCC(N)=O)c3)nc(Nc3ccc(-c4ccc(Nc5nc(Nc6cccc(S(=O)(=O)N(CCCC(N)=O)CCCC(N)=O)c6)nc(Nc6cccc(S(=O)(=O)N(CCCC(N)=O)CCCC(N)=O)c6)n5)cc4S(=O)(=O)O)c(S(=O)(=O)O)c3)n2)c1`, the negative logarithm of the IC50 (pIC50) in test [1] was 7.00.
In the case of `NC(=O)CN(CC(N)=O)S(=O)(=O)c1cccc(Nc2nc(Cl)cc(Nc3ccc(-c4ccc(Nc5cc(Cl)nc(Cl)n5)cc4S(=O)(=O)O)c(S(=O)(=O)O)c3)n2)c1`, the pIC50 is 4.33 in test [3], 4.78 in test [1] and 4.60 in test [2].
